Where a name gives a salt, the structure may show the parent alone.
Target: T1, human 5-HT4e receptor (Homo sapiens, UniProt Q13639)
T1 construct: expressed in transfected cells; host or cells: CHO cells
Test: Binding affinity assay, radioligand [3H]GR 113808 binding in transfected CHO cell membrane homogenates
Conditions: 0.3 nM [3H]GR 113808; for inhibition at 0.3 µM: @ 0.3 uM test compound; for inhibition at 0.3 µM / inhibition at 3 µM: read-out: KI (μM or % inhibition): percent inhibition of the control radioligand specific binding; for inhibition at 3 µM: @ 3 uM test compound; for Ki: human 5-HT4e receptor in transfected CHO cells, read-out: KI (μM or % inhibition)
Description: The evaluation of the affinity of compounds for the human 5-HT4e receptor in transfected CHO cells was determined in a radioligand binding assay. Experimental protocol: Cell membrane homogenates (140 μg protein) were incubated for […] at 37° C. with 0.3 nM [3H]GR 113808 in the absence or presence of the test compound in a buffer containing 50 mM Hepes/Tris (pH 7.4) and 1 μM pargyline. Nonspecific binding was determined in the presence of 100 μM 5-HT. Following incubation, the samples were filtered rapidly under vacuum through glass fiber filters (GF/B, Packard) presoaked with 0.3% PEI and rinsed several times with ice-cold 50 mM Tris-HCl using a 96-sample cell harvester (Unifilter, Packard). The filters were dried then counted for radioactivity in a scintillation counter (Topcount, Packard) using a scintillation cocktail (Microscint 0, Packard). The results are expressed as a percent inhibition of the control radioligand specific binding at a certain concentration of the test compound. The test compound can also be assessed at several concentrations to obtain a competition curve from which its IC50 and Ki are calculated.

T1 sequence (Q13639 1-378 isoform Q13639-5): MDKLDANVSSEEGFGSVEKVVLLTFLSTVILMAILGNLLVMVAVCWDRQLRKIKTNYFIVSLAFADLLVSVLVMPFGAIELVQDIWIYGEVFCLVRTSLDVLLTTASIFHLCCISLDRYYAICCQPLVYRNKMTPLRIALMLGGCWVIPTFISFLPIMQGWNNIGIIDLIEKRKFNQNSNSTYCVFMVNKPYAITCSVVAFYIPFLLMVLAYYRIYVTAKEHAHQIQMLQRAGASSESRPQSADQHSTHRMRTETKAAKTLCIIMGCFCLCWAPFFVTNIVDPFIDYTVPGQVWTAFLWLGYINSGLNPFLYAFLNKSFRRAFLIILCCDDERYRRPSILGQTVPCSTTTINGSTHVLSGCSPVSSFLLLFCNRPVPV

| Compound | inhibition at 0.3 µM [%] | inhibition at 3 µM [%] | Ki [µM] |
| --- | --- | --- | --- |
| CCCCC1CCN(CCNC(=O)C(=O)c2cn(C(C)C)c3ccccc23)CC1 [Example 24, N-(2-(4-Butylpiperidin-1-yl)ethyl)-2-(1-isopropyl-1H-indol-3-yl)-2-oxoacetamide] | 95 | 101 |  |
| CCC(C)n1cc(C(=O)C(=O)NCCN2CCCCC2)c2ccccc21 (centres unmarked) [Example 5, 2-(1-sec-Butyl-1H-indol-3-yl)-2-oxo-N-(2-(piperidin-1-yl)ethyl)acetamide hydrochloride] |  |  | 0.031 |
| CC(C)CN1CCC(CNC(=O)C(=O)c2cn(C(C)C)c3ccccc23)CC1 [Example 15, N-((1-Isobutylpiperidin-4-yl)methyl)-2-(1-isopropyl-1H-indol-3-yl)-2-oxoacetamide] |  |  | 0.016 |
| Cc1ccc2c(c1)c(C(=O)C(=O)NCCN1CCCCC1)cn2C(C)C [Example 12, 2-(1-isopropyl-5-methyl-1H-indol-3-yl)-2-oxo-N-(2-(piperidin-1-yl)ethyl)acetamide] |  |  | 0.071 |
| CC(C)n1cc(C(=O)C(=O)NCCCN2CCCCC2)c2ccccc21 [Example 1, 2-(1-Isopropyl-1H-indol-3-yl)-2-oxo-N-(3-(piperidin-1-yl)propyl)acetamide hydrochloride] |  |  | 0.007 |
| CCn1cc(C(=O)C(=O)NCCN2CCCCC2)c2ccccc21 [Example 4, 2-(1-Ethyl-1H-indol-3-yl)-2-oxo-N-(2-(piperidin-1-yl)ethyl)acetamide hydrochloride] |  |  | 0.005 |
| CCCN1CCC(NC(=O)C(=O)c2cn(C(C)C)c3ccccc23)CC1 [Example 14, 2-(1-Isopropyl-1H-indol-3-yl)-2-oxo-N-(1-propylpiperidin-4-yl)acetamide] |  |  | 0.0027 |
| CC(C)n1cc(C(=O)C(=O)NCCN2CCCC2)c2ccccc21 [Example 10, 2-(1-Isopropyl-1H-indol-3-yl)-2-oxo-N-(2-(pyrrolidin-1-yl)ethyl)acetamide] |  |  | 0.013 |
| CC(C)n1cc(C(=O)C(=O)NCCN2CCCCC2)c2ccc(N)c(Cl)c21 [Example 9, 2-(6-Amino-7-chloro-1-isopropyl-1H-indol-3-yl)-2-oxo-N-(2-(piperidin-1-yl)ethyl)acetamide hydrochloride] |  |  | 0.1 |
| CCN(CC)CCNC(=O)C(=O)c1cn(C(C)C)c2ccccc12 [Example 3, N-(2-(Diethylamino)ethyl)-2-(1-isopropyl-1H-indol-3-yl)-2-oxoacetamide hydrochloride] |  |  | 0.008 |
| CC(C)n1cc(C(=O)C(=O)NCCN2CCCCC2)c2cccnc21 [Example 17, 2-(1-Isopropyl-1H-pyrrolo[2,3-b]pyridin-3-yl)-2-oxo-N-(2-(piperidin-1-yl)ethyl)acetamide] |  |  | 0.022 |
| COc1ccc2c(c1)c(C(=O)C(=O)NCCN1CCCCC1)cn2C(C)C [Example 11, 2-(1-Isopropyl-5-methoxy-1H-indol-3-yl)-2-oxo-N-(2-(piperidin-1-yl)ethyl)acetamide] |  |  | 0.31 |
| CCCCN1CCC(NC(=O)C(=O)c2cn(C(C)C)c3ccccc23)CC1 [Example 19, N-(1-Butylpiperidin-4-yl)-2-(1-isopropyl-1H-indol-3-yl)-2-oxoacetamide] |  |  | 0.0025 |
| CC(C)n1cc(C(=O)C(=O)NCCN2CCCCC2)c2ccc([N+](=O)[O-])cc21 [Example 7, 2-(1-Isopropyl-6-nitro-1H-indol-3-yl)-2-oxo-N-(2-(piperidin-1-yl)ethyl)acetamide hydrochloride] |  |  | 2.7 |
| CCC1CCN(CCNC(=O)C(=O)c2cn(C(C)C)c3ccccc23)CC1 [Example 23, N-(2-(4-ethylpiperidin-1-yl)ethyl)-2-(1-isopropyl-1H-indol-3-yl)-2-oxoacetamide hydrochloride] | 99 | 101 |  |
| CC(C)n1cc(C(=O)C(=O)NCCN2CCCCC2)c2ccc(N)cc21 [Example 8, 2-(6-Amino-1-isopropyl-1H-indol-3-yl)-2-oxo-N-(2-(piperidin-1-yl)ethyl)acetamide hydrochloride] |  |  | 0.75 |
| CC(C)n1cc(C(=O)C(=O)NC2CCN(CCCO)CC2)c2ccccc21 [Example 13, N-(1-(3-Hydroxypropyl)piperidin-4-yl)-2-(1-isopropyl-1H-indol-3-yl)-2-oxoacetamide] |  |  | 0.0024 |
| CC(C)n1cc(C(=O)C(=O)NCCN2CCC(C(F)(F)F)CC2)c2ccccc21 [Example 16, 2-(1-Isopropyl-1H-indol-3-yl)-2-oxo-N-(2-(4-(trifluoromethyl)piperidin-1-yl)ethyl)acetamide] |  |  | 0.023 |
| CC(C)n1cc(C(=O)C(=O)NC2CCN(CCNS(C)(=O)=O)CC2)c2ccccc21 [Example 21, 2-(1-Isopropyl-1H-indol-3-yl)-N-(1-(2-(methylsulfonamido)ethyl)piperidin-4-yl)-2-oxoacetamide TFA salt] | 95 | 101 |  |
| CCCC1CCN(CCNC(=O)C(=O)c2cn(C(C)C)c3ccccc23)CC1 [Example 18, 2-(1-Isopropyl-1H-indol-3-yl)-2-oxo-N-(2-(4-propylpiperidin-1-yl)ethyl)acetamide TFA salt] | 99 | 102 |  |
| CC(C)n1cc(C(=O)C(=O)NCCN2CCCCC2)c2cc(Cl)ccc21 [Example 6, 2-(5-Chloro-1-isopropyl-1H-indol-3-yl)-2-oxo-N-(2-(piperidin-1-yl)ethyl)acetamide hydrochloride] |  |  | 0.047 |
| CC(C)n1cc(C(=O)C(=O)NCCN2CCCCC2)c2ccccc21 [Example 2, 2-(1-Isopropyl-1H-indol-3-yl)-2-oxo-N-(2-(piperidin-1-yl)ethyl)acetamide hydrochloride] |  |  | 0.005 |
| COCCCN1CCC(NC(=O)C(=O)c2cn(C(C)C)c3ccccc23)CC1 [Example 20, 2-(1-Isopropyl-1H-indol-3-yl)-N-(1-(3-methoxypropyl)piperidin-4-yl)-2-oxoacetamide TFA salt] |  |  | 0.0069 |
| CC(C)n1cc(C(=O)C(=O)NCCN2CCC(CCO)CC2)c2ccccc21 [Example 22, N-(2-(4-(2-Hydroxyethyl)piperidin-1-yl)ethyl)-2-(1-isopropyl-1H-indol-3-yl)-2-oxoacetamide hydrochloride] | 99 | 101 |  |

From patent US8114894B2, “Bicyclic compounds and methods of making and using same” (Nanotherapeutics, Inc., priority 2008, dated 2012)
